In PMC8779134 (2022):
*1 amine or outer side, *2 acyl side, *3 side chain or, on linkers, in order; H or OH if unused. Where a SMILES comes first, the peptide text is derived from it. Bridges are numbered along the chain shown (N, C = ends). [ ]: non-standard residue; d: D form. ξ: configuration not given here. ξTrp(2-yl) = O=C(C(Cc1c([*:3])[nH]c2ccccc12)N[*:1])[*:2]; X2 = O=C(C(CC(O)(CO)CO)N[*:1])[*:2]; X1 = CC(O)(CO)CC(N[*:1])C(=O)[*:2]; ξAsp(3ξ-OH) = NC(C(=O)O)C(O)C(=O)O; Hyp = O=C(O)[CH]1C[CH](O)CN1

Tests used:
[1] = test system: Apt (DNA, aptamer) CATGCTTCCCCAGGGAGATGGAGGTCTTTTTGGTTGTTGGTGGGGGAATCTTTTGGTATTGAGGAACATG; assay: AuNP colorimetric assay (A620/A520); conditions: Na+ 40 mM (NaCl added after binding), room temperature, 400 nM aptamer
[2] = test system: biotin-labeled Apt (DNA, aptamer) CATGCTTCCCCAGGGAGATGGAGGTCTTTTTGGTTGTTGGTGGGGGAATCTTTTGGTATTGAGGAACATG; assay: magnetic bead ELISA, competition (A450); conditions: 37 °C, biotinylated complementary strand as competitor
[3] = test system: Apt (DNA, aptamer) CATGCTTCCCCAGGGAGATGGAGGTCTTTTTGGTTGTTGGTGGGGGAATCTTTTGGTATTGAGGAACATG; assay: ITC; conditions: ultrapure water, 25 °C; 500 μM aptamer titrated into 41.6 μM α-amanitin
[4] = test system: Apt-2 (DNA, aptamer) CCAGGGAGATGGAGGTCTTTTTGGTTGTTGGTGGGGGAATCTTTTGGTATTGAGGAACATG; assay: ITC; conditions: ultrapure water, 25 °C; 500 μM aptamer titrated into 41.6 μM α-amanitin
[5] = test system: Apt-8 (DNA, aptamer) CATGCTTCCCCAGGGAGATGGAGGTCTTTTTGGTTGTTGGTGGGGGAATCTTTTGGTA; assay: ITC; conditions: ultrapure water, 25 °C; 500 μM aptamer titrated into 41.6 μM α-amanitin
[6] = test system: Apt-10 (DNA, aptamer) CCCCAGGGAGATGGAGGTCTTTTTGGTTGTTGGTGGGGGAATCTTTTGGTATTGAGGAA; assay: ITC; conditions: ultrapure water, 25 °C; 500 μM aptamer into 41.6 μM α-amanitin; printed ΔG positive
[7] = test system: Apt-11 (DNA, aptamer) CTTCCCCAGGGAGATGGAGGTCTTTTTGGTTGTTGGTGGGGGAAT; assay: ITC; conditions: ultrapure water, 25 °C; 500 μM aptamer into 41.6 μM α-amanitin; fit unphysical (N, ΔH)
[8] = test system: Apt-12 (DNA, aptamer) GGGAGATGGAGGTCTT; assay: ITC; conditions: ultrapure water, 25 °C; 500 μM aptamer titrated into 41.6 μM α-amanitin
[9] = test system: Apt (DNA, aptamer) CATGCTTCCCCAGGGAGATGGAGGTCTTTTTGGTTGTTGGTGGGGGAATCTTTTGGTATTGAGGAACATG; assay: AuNP colorimetric assay (A520); conditions: Na+ 40 mM (NaCl added after binding); room temperature; aptamer 0-1600 nM titrated into 1 μg/mL α-amanitin; apparent; table unit misprinted Nm
[10] = test system: Apt-2 (DNA, aptamer) CCAGGGAGATGGAGGTCTTTTTGGTTGTTGGTGGGGGAATCTTTTGGTATTGAGGAACATG; assay: AuNP colorimetric assay (A520); conditions: Na+ 40 mM (NaCl added after binding); room temperature; aptamer 0-1600 nM titrated into 1 μg/mL α-amanitin; apparent; table unit misprinted Nm
[11] = test system: Apt-8 (DNA, aptamer) CATGCTTCCCCAGGGAGATGGAGGTCTTTTTGGTTGTTGGTGGGGGAATCTTTTGGTA; assay: AuNP colorimetric assay (A520); conditions: Na+ 40 mM (NaCl added after binding); room temperature; aptamer 0-1600 nM titrated into 1 μg/mL α-amanitin; apparent; table unit misprinted Nm
[12] = test system: Apt-10 (DNA, aptamer) CCCCAGGGAGATGGAGGTCTTTTTGGTTGTTGGTGGGGGAATCTTTTGGTATTGAGGAA; assay: AuNP colorimetric assay (A520); conditions: Na+ 40 mM (NaCl added after binding); room temperature; aptamer 0-1600 nM titrated into 1 μg/mL α-amanitin; apparent; table unit misprinted Nm
[13] = test system: Apt-11 (DNA, aptamer) CTTCCCCAGGGAGATGGAGGTCTTTTTGGTTGTTGGTGGGGGAAT; assay: AuNP colorimetric assay (A520); conditions: Na+ 40 mM (NaCl added after binding); room temperature; aptamer 0-1600 nM titrated into 1 μg/mL α-amanitin; apparent; table unit misprinted Nm
[14] = test system: Apt-12 (DNA, aptamer) GGGAGATGGAGGTCTT; assay: AuNP colorimetric assay (A520); conditions: Na+ 40 mM (NaCl added after binding); room temperature; 1 μg/mL α-amanitin; apparent; text b16 prints 132.1 ± 32.99 nM instead
[15] = highest concentration 500 ng/mL

C[C@@H]1Cc2c(Cl)cc(C(=O)N[C@@H](Cc3ccccc3)C(=O)O)c(O)c2C(=O)O1
binding ([1]; highest concentration 1 μg/mL): no

CC[C@H](C)[C@@H]1NC(=O)CNC(=O)[C@@H]2Cc3c([nH]c4cc(O)ccc34)[S@](=O)C[C@H](NC(=O)CNC1=O)C(=O)N[C@@H](CC(N)=O)C(=O)N1C[C@H](O)C[C@H]1C(=O)N[C@@H]([C@@H](C)[C@H](C)O)C(=O)N2
binding [2, 15]: no

CC1NC(=O)C2CC(O)CN2C(=O)C2CSc3[nH]c4ccccc4c3CC(NC1=O)C(=O)NC(CC(O)(CO)CO)C(=O)NC(C(C)C)C(=O)NC(C(O)C(=O)O)C(=O)N2 (centres unmarked) (cyclo([ξAsp(3ξ-OH)]C[Hyp]A[ξTrp(2-yl)][X2]V); thioether 2-5; configuration not given here)
binding [2, 15]: no

CC1NC(=O)C2CC(O)CN2C(=O)C2CSc3[nH]c4ccccc4c3CC(NC1=O)C(=O)NC(CC(C)(O)CO)C(=O)NC(C(C)C)C(=O)NC(C(O)C(=O)O)C(=O)N2 (centres unmarked) (cyclo([ξAsp(3ξ-OH)]C[Hyp]A[ξTrp(2-yl)][X1]V); thioether 2-5; configuration not given here)
binding [2, 15]: no

CCCC[C@@H](C)[C@@H](OC(=O)C[C@@H](CC(=O)O)C(=O)O)[C@H](C[C@@H](C)C[C@H](O)CCCC[C@@H](O)C[C@H](O)[C@H](C)N)OC(=O)C[C@@H](CC(=O)O)C(=O)O
binding ([1]; highest concentration 1 μg/mL): no

CC[C@H](C)[C@@H]1NC(=O)CNC(=O)[C@@H]2Cc3c([nH]c4cc(O)ccc34)[S@](=O)C[C@H](NC(=O)CNC1=O)C(=O)N[C@@H](CC(=O)O)C(=O)N1C[C@H](O)C[C@H]1C(=O)N[C@@H]([C@@H](C)[C@@H](O)CO)C(=O)N2
binding ([1]; 1 μg/mL β-amanitin): yes
binding ([2]; 500 ng/mL): yes

CC[C@H](C)[C@@H]1NC(=O)CNC(=O)[C@@H]2Cc3c([nH]c4cc(O)ccc34)[S@](=O)C[C@H](NC(=O)CNC1=O)C(=O)N[C@@H](CC(N)=O)C(=O)N1C[C@H](O)C[C@H]1C(=O)N[C@@H]([C@@H](C)[C@@H](O)CO)C(=O)N2
Kd [3]: 3100 nM
Kd [4]: 46900 nM
Kd [5]: 11900 nM
Kd [6]: 68000 nM
Kd [7]: 54600 nM
Kd [8]: 84700 nM
Kd [9]: 33.6 ± 3.928 nM
Kd [10]: 37.9 ± 6.053 nM
Kd [11]: 130.9 ± 31.1 nM
Kd [12]: 108.7 ± 18.23 nM
Kd [13]: 184.4 ± 37.08 nM
Kd [14]: 185.2 ± 60.87 nM
binding ([2]; 0.1-6 μg/mL): yes
